This passage reports IC50 results from patent US10745392B2, “Benzenesulfonamide compounds and their use as therapeutic agents” (Xenon Pharmaceuticals Inc., priority 2018, dated 2020).

Series [1] concerns the target NaV1.6 (Homo sapiens (Human), UniProt Q9UQD0). Description: Sodium Influx Assay (Flux) NaV1.6. The series is classed as cell-based. The note with it: Trex HEK293 cells, ANG2 dye, inhibition of sodium ion influx.
The target in series [2] is T1, NaV1.5 (Homo sapiens (Human), UniProt Q14524). Description: Sodium Influx Assay (Flux) NaV1.5.
Series [3] deals with NaV1.1 (Homo sapiens (Human), UniProt P35498). Description: Sodium Influx Assay (Flux) NaV1.1. The format is cell-based. Particulars: Trex HEK293 cells, ANG2 dye, inhibition of sodium ion influx.
Series [4] deals with T1, NaV1.5.
Setting [5] is: read-out: Flux NaV1.5 IC50, Trex HEK293 cells, ANG2 dye, inhibition of sodium ion influx.

Like-named read-outs stand apart in the source and are kept apart here.

Usually IC50 stands for the concentration needed to halve the response being measured.

T1 sequence (Q14524 other isoform, or with tags, fused parts or gaps): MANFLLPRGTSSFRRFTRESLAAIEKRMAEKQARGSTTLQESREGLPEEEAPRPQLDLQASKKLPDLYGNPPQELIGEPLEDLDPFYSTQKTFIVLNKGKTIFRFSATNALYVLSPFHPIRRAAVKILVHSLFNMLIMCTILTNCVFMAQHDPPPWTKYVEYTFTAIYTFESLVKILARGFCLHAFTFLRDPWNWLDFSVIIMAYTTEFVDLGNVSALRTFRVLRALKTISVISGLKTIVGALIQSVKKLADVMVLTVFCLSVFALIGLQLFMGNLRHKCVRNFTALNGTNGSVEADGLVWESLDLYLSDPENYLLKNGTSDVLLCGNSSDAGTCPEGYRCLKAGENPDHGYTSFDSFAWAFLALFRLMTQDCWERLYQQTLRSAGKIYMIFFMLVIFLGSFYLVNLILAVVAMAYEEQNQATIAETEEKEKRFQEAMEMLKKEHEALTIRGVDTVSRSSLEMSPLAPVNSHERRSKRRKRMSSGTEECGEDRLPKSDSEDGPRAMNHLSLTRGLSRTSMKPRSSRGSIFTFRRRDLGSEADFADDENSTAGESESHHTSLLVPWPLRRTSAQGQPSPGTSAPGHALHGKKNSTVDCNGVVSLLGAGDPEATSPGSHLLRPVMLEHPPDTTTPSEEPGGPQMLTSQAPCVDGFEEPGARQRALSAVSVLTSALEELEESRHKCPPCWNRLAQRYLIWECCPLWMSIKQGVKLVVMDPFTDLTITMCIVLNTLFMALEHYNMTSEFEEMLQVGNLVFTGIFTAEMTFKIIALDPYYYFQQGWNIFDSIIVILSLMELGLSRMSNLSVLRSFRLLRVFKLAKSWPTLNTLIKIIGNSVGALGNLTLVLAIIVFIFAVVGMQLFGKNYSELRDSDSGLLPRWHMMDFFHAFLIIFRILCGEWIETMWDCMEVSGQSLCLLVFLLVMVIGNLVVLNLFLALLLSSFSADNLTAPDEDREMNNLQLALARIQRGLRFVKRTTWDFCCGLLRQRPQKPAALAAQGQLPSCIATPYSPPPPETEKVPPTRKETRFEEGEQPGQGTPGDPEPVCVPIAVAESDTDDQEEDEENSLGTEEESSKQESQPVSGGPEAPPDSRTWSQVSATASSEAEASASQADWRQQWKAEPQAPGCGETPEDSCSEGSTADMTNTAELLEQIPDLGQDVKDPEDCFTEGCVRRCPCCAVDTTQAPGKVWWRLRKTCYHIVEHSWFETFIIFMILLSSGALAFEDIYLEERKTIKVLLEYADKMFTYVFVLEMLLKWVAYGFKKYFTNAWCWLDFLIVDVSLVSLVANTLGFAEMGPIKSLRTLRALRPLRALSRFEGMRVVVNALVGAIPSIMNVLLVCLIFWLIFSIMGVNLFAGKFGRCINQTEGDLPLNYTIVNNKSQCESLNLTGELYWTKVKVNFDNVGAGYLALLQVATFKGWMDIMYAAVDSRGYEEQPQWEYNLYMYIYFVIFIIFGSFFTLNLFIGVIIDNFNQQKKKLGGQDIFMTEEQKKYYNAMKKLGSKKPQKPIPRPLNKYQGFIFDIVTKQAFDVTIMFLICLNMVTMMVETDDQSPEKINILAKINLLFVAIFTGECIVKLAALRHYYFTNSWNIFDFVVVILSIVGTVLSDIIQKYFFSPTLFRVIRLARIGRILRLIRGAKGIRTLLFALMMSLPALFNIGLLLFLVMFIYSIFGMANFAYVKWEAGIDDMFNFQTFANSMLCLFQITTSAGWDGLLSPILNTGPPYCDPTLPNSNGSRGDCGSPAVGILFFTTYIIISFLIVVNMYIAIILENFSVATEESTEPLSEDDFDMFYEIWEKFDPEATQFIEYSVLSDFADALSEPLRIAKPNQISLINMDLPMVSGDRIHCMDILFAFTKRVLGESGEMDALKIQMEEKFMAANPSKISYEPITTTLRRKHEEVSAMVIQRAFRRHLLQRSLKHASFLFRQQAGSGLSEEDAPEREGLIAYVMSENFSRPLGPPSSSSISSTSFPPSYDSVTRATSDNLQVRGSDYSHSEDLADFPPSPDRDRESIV

With `CC(C)Oc1ccc(F)c(CNc2cc(F)c(S(=O)(=O)Nc3cscn3)c(F)c2)c1CN(C)C(C)C` [Example 8, 2,6-difluoro-4-((6-fluoro-3-isopropoxy-2-((isopropyl(methyl)amino)methyl)benzyl)amino)-N-(thiazol-4-yl)benzenesulfonamide], the IC50 was 0.026 µM in series [1], 11.1 µM in series [2] (setting [5]) and 28 µM in series [3].
Consider `O=S(=O)(Nc1ccsn1)c1c(F)cc(NCc2c(F)cccc2CN2C3CCC2CC3)cc1F` [Example 1, 4-((2-((7-azabicyclo[2.2.1]heptan-7-yl)methyl)-6-fluorobenzyl)amino)-2,6-difluoro-N-(isothiazol-3-yl)benzenesulfonamide], for which the results for the IC50 in series [4], in series [1] and in series [3] were above 30 µM, 0.015 µM and 9.6 µM, respectively.
Take `COc1ccc(F)c(CNc2cc(F)c(S(=O)(=O)Nc3cscn3)c(F)c2)c1CN1C2CCC1CC2` [Example 11, 4-((2-((7-azabicyclo[2.2.1]heptan-7-yl)methyl)-6-fluoro-3-methoxybenzyl)amino)-2,6-difluoro-N-(thiazol-4-yl)benzenesulfonamide 2,2,2-trifluoroacetate]: the IC50 in series [4] was determined as 27.5 µM; in series [1], 0.002 µM; in series [3] it was 5.91 µM.
Regarding `COc1ccc(F)c(CNc2ccc(S(=O)(=O)Nc3cscn3)c(F)c2F)c1CN1C2CCC1CC2` [Example 12, 4-((2-((7-azabicyclo[2.2.1]heptan-7-yl)methyl)-6-fluoro-3-methoxybenzyl)amino)-2,3-difluoro-N-(thiazol-4-yl)benzenesulfonamide 2,2,2-trifluoroacetate], the IC50 in series [4] is above 30 µM; in series [1], 0.054 µM; in series [3], above 30 µM.
For the molecule `O=S(=O)(Nc1cscn1)c1c(F)cc(NCc2c(F)ccc(F)c2CN2C3CCC2CC3)cc1F` [Example 10, 4-((2-((7-azabicyclo[2.2.1]heptan-7-yl)methyl)-3,6-difluorobenzyl)amino)-2,6-difluoro-N-(thiazol-4-yl)benzenesulfonamide], the results for the IC50 in series [4], in series [1] and in series [3] were 25.4 µM, 0.028 µM and 7.93 µM, respectively.
As for `Cc1c(NCc2c(F)cccc2CN2C3CCC2CC3)ccc(S(=O)(=O)Nc2cscn2)c1F` [Example 7, 4-((2-((7-azabicyclo[2.2.1]heptan-7-yl)methyl)-6-fluorobenzyl)amino)-2-fluoro-3-methyl-N-(thiazol-4-yl)benzenesulfonamide 2,2,2-trifluoroacetate], the half-inhibitory concentration (IC50) was 21.3 µM in series [4], 0.181 µM in series [1] and 7.44 µM in series [3].
As for `C[C@H](c1c(F)ccc(F)c1CNc1cc(F)c(S(=O)(=O)Nc2cscn2)c(F)c1)N1C2CCC1CC2` (single isomer, unassigned) [Example 15b], the IC50 in series [1] was 0.821 µM; in series [2], above 30 µM; in series [3], above 30 µM.
Consider `O=S(=O)(Nc1cscn1)c1c(F)cc(NCc2c(F)cccc2CN2C3CCC2CC3)cc1F` [Example 9, 4-((2-((7-azabicyclo[2.2.1]heptan-7-yl)methyl)-6-fluorobenzyl)amino)-2,6-difluoro-N-(thiazol-4-yl)benzenesulfonamide 2,2,2-trifluoroacetate], for which the IC50 amounted to 20.4 µM in series [4], 0.026 µM in series [1] and 7.84 µM in series [3].
Consider `COc1ccc(F)c(CNc2ccc(S(=O)(=O)Nc3cscn3)c(F)c2F)c1CN(C)C(C)C` [Example 16, 2,3-difluoro-4-((6-fluoro-2-((isopropyl(methyl)amino)methyl)-3-methoxybenzyl)amino)-N-(thiazol-4-yl)benzenesulfonamide], for which the figures for the IC50 in series [1], in series [2] (setting [5]) and in series [3] were 0.031 µM, 9.46 µM and above 30 µM, respectively.
In the case of `COc1ccc(F)c(CNc2cc(F)c(S(=O)(=O)Nc3cscn3)cc2C)c1CN(C)C(C)C` [Example 18, 2-fluoro-4-((6-fluoro-2-((isopropyl(methyl)amino)methyl)-3-methoxybenzyl)amino)-5-methyl-N-(thiazol-4-yl)benzenesulfonamide 2,2,2-trifluoroacetate], the IC50 in series [1] is 0.016 µM; in series [2] (setting [5]), 11.8 µM; in series [3], above 30 µM.
Turning to `COc1ccc(F)c(CNc2cc(F)c(S(=O)(=O)Nc3cscn3)cc2Cl)c1CN(C)C(C)C` [Example 17, 5-chloro-2-fluoro-4-((6-fluoro-2-((isopropyl(methyl)amino)methyl)-3-methoxybenzyl)amino)-N-(thiazol-4-yl)benzenesulfonamide 2,2,2-trifluoroacetate], the IC50 in series [1] is 0.012 µM; in series [2] (setting [5]), 16.3 µM; in series [3], above 30 µM.
With `Cc1c(NCc2c(F)cccc2CN2C3CCC2CC3)ccc(S(=O)(=O)Nc2ccon2)c1F` [Example 5, 4-((2-((7-azabicyclo[2.2.1]heptan-7-yl)methyl)-6-fluorobenzyl)amino)-2-fluoro-N-(isoxazol-3-yl)-3-methylbenzenesulfonamide 2,2,2-trifluoroacetate], the IC50 in series [4] was above 30 µM; in series [1], 0.617 µM; in series [3], above 30 µM.
For the molecule `O=S(=O)(Nc1ccsn1)c1ccc(NCc2c(F)cccc2CN2C3CCC2CC3)c(F)c1F` [Example 13, 4-((2-((7-azabicyclo[2.2.1]heptan-7-yl)methyl)-6-fluorobenzyl)amino)-2,3-difluoro-N-(isothiazol-3-yl)benzenesulfonamide 2,2,2-trifluoroacetate], the IC50 in series [4] was above 30 µM; in series [1], 0.27 µM; in series [3], 23.7 µM.
On the same counts, the results for `CC(c1c(F)ccc(F)c1CNc1cc(F)c(S(=O)(=O)Nc2cscn2)c(F)c1)N1C2CCC1CC2` (stereo not drawn) [Example 14, 4-((2-(1-(7-azabicyclo[2.2.1]heptan-7-yl)ethyl)-3,6-difluorobenzyl)amino)-2,6-difluoro-N-(thiazol-4-yl)benzenesulfonamide 2,2,2-trifluoroacetate] are 12.8 µM, 0.653 µM and above 30 µM.
Turning to `O=S(=O)(Nc1cscn1)c1ccc(NCc2c(F)cccc2CN2C3CCC2CC3)c(Cl)c1F` [Example 6, 4-((2-((7-azabicyclo[2.2.1]heptan-7-yl)methyl)-6-fluorobenzyl)amino)-3-chloro-2-fluoro-N-(thiazol-4-yl)benzenesulfonamide 2,2,2-trifluoroacetate], the IC50 came out at 15.3 µM in series [4], 0.095 µM in series [1] and 5.23 µM in series [3].
As for `C[C@@H](c1c(F)ccc(F)c1CNc1cc(F)c(S(=O)(=O)Nc2cscn2)c(F)c1)N1C2CCC1CC2` (single isomer, unassigned) [Example 15a], the values for the 50% inhibitory concentration (IC50) in series [1], in series [2] and in series [3] were 0.53 µM, above 30 µM and above 30 µM, respectively.
As for `COc1ccc(F)c(CNc2cc(F)c(S(=O)(=O)Nc3cscn3)c(F)c2)c1CN(C)C(C)C` [Example 2, 2,6-difluoro-4-((6-fluoro-2-((isopropyl(methyl)amino)methyl)-3-methoxybenzyl)amino)-N-(thiazol-4-yl)benzenesulfonamide], the IC50 was found to be 0.027 µM in series [1], 28.3 µM in series [2] (setting [5]) and 27.5 µM in series [3].
`Cc1c(NCc2c(F)cccc2CN2C3CCC2CC3)cc(F)c(S(=O)(=O)Nc2ccon2)c1F` [Example 4, 4-((2-((7-azabicyclo[2.2.1]heptan-7-yl)methyl)-6-fluorobenzyl)amino)-2,6-difluoro-N-(isoxazol-3-yl)-3-methylbenzenesulfonamide]: the 50% inhibitory concentration (IC50) in series [4] was above 30 µM; in series [1] it was 0.047 µM; in series [3], 17 µM.
Take `O=S(=O)(Nc1cscn1)c1ccc(NCc2c(F)cccc2CN2C3CCC2CC3)c(F)c1F` [Example 3, 4-((2-((7-azabicyclo[2.2.1]heptan-7-yl)methyl)-6-fluorobenzyl)amino)-2,3-difluoro-N-(thiazol-4-yl)benzenesulfonamide]: the IC50 is above 30 µM in series [4], 0.142 µM in series [1] and above 30 µM in series [3].
